Test results reported in US20240376108A1, “SALT AND CRYSTAL FORM OF PYRAZOLE-CONTAINING POLYCYCLIC DERIVATIVE, AND PREPARATION METHOD THEREFOR AND USE THEREOF” (Shanghai Hansoh Biomedical Co., Ltd., priority 2021, published 2024).

Legend:
[1] = Pharmacokinetic assay of the salt forms in rats (10 mg/kg); format: in vivo; details: SD rats
Method: 2.3 Pharmacokinetic assay of the methanesulfonate in rats
2.3.1. Study objective: SD rats were used as test animals. The pharmacokinetic behavior of various salt forms of 2-(2-cyano-5-oxo-8-(trifluoromethyl)pyrazolo[1,5-a]pyrido[3,2-e]pyrimidin-4(5H)-yl)-N-(5-fluoropyridin-2-yl)acetamide was studied in rat body (plasma) by orally administration at a dose of 10 mg/kg.
2.3.2.4 Administration: After an overnight fast, male SD rats (3 rats per group) were administered p.o. with the test compound at a dose of 10 mg/kg and a volume of 10 mL/kg.
2.3.2.5 Sample collection: 0.2 mL of blood was taken from the jugular vein of the rat before administration and at 0, 0.5, 1, 2, 4, 6, 8 and 24 hours after administration. The samples were stored in EDTA-K2 tubes, and centrifuged for 6 minutes at 4° C., 6000 rpm to separate the plasma. The plasma samples were stored at −80° C.
1) 160 μL of acetonitrile was added to 40 μL of the plasma sample for precipitation, and then the mixture was centrifuged at 3500×g for 5 to 20 minutes.
2) After the above process, 100 μL of the supernatant was taken to analyze the concentration of the test compound by LC/MS/MS.
2.3.2.7 Liquid chromatography analysis • Liquid chromatography condition: Shimadzu LC-20AD pump • Mass spectrometry condition: AB Sciex API 4000 mass spectrometer • Chromatographic column: phenomenex Gemiu 5 um C18 50×4.6 mm • Mobile phase: Eluent A was 0.1% formic acid in water, and Eluent B was acetonitrile • Flow rate: 0.8 mL/min • Elution time: 0-4.0 minutes, the eluent is as follows:
The main parameters of pharmacokinetics were calculated by WinNonlin 8.2.

[2] = Solid stability experiment (high temperature, high humidity, high temperature and high humidity); format: physicochemical
Method: 4.1.1 Experimental objective: To investigate the physical and chemical stability of the crystal form of the compound under the conditions of high temperature, high humidity, as well as high temperature and high humidity, so as to provide a basis for crystal form screening and storage of the crystal form of the compound.
The content of the salt was determined by HPLC using the external standard method, and the change of relevant substances was calculated by using the chromatographic peak area normalization method.

[3] = Hygroscopicity experiment (DVS); format: physicochemical; details: 25° C.
Method in brief: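 Crystalline salt forms equilibrated with water vapour at a range of relative humidities (DVS). Percentage weight gain at equilibrium recorded.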

[4] = Metabolic stability in liver microsome (mouse); format: in vitro ADME
Method: (§1) Test Example 5. Assay of Metabolic Stability in Liver Microsome
(§2) 1. Experimental objective: The objective of the experiment is to determine the stability of the compounds of the Examples in liver microsome of mouse, rat, dog and human.
(§3) 2.1 Formulation of the working solution of the compound: Formulation of the working solution of the compound: The stock solution of the compound was added to phosphate buffer, and the final concentration was 20 μM.
(§4) 2.2 Formulation of the working solution of liver microsome: Liver microsome was diluted with 100 mM phosphate buffer to obtain a final concentration of 0.625 mg/mL.
(§5) 2.3 Formulation of NADPH and UDPGA: NADPH (reduced nicotinamide adenine dinucleotide phosphate) and UDPGA (uridine diphosphate glucuronic acid) were weighed respectively, followed by addition of 100 mM phosphate buffer. The final concentrations were 20 mM.
(§6) 2.4 Formulation of the channel-forming reagent: 1 mg of Alamethicin was weighed, to which 200 μL of DMSO was added to obtain a 5 mg/mL solution. The solution was diluted with phosphate buffer to obtain a final concentration of 50 μg/mL.
(§7) 2.5 Formulation of the reaction stop solution: Stop solution: Cold acetonitrile containing 100 ng/mL labetalol hydrochloride and 400 ng/mL tolbutamide as internal standards.
(§8) 2.6 Incubation procedure: 400 μL of the prepared liver microsome, 25 μL of the working solution of the compound and 25 μL of Alamethicin were added to a 96-well plate successively, which was then pre-incubated at 37° C. for 10 minutes. 50 μL of the prepared NADPH/UDPGA was added to initiate the reaction, and the plate was incubated at 37° C. The total volume of the reaction system was 500 μL. The final contents of the components were as follows:
(§9) 2.7.1 Chromatographic conditions: • Instrument: Shimadzu LC-30 AD; Chromatographic column: XBridge® C18 (50*4.6 mm, particle size: 5 μm); • Mobile phase: A: 0.1% formic acid solution, B: methanol • Eluent gradient: 0.2˜1.6 min 5% A to 95% A, 3.0˜3.1 min 95% A to 5% A • Running time: 4.0 min.
(§10) 2.7.2 Mass spectrometry conditions: • Instrument: API5500 liquid chromatography-mass spectrometer, AB Sciex; • Ion source: Electrospray ionization source (ESI); Drying gas: N2, temperature: 500° C.; • Electrospray voltage: 5000V; Detection method: Positive ion detection; • Scanning mode: Mode of reaction monitoring (MRM).

[5] = Metabolic stability in liver microsome (rat); format: in vitro ADME; details: rat liver microsome, 60 min
Method: as §1, §2, §3, §4, §5, §6, §7, §8, §9, §10

[6] = Metabolic stability in liver microsome (human); format: in vitro ADME
Method: as §1, §2, §3, §4, §5, §6, §7, §8, §9, §10

[7] = High humidity (92.5% RH), Day 7
[8] = High humidity (92.5% RH), Day 14
[9] = High temperature (60° C.), Day 7
[10] = High temperature (60° C.), Day 14
[11] = High temperature and high humidity (50° C.&75% RH), Day 7
[12] = High temperature and high humidity (50° C.&75% RH), Day 14
[13] = Cycle 1, target relative humidity 0.0%
[14] = Cycle 1, target relative humidity 10.0%
[15] = Cycle 1, target relative humidity 20.0%
[16] = Cycle 1, target relative humidity 30.0%
[17] = Cycle 1, target relative humidity 40.0%
[18] = Cycle 1, target relative humidity 50.0%
[19] = Cycle 1, target relative humidity 60.0%
[20] = Cycle 1, target relative humidity 70.0%
[21] = Cycle 1, target relative humidity 80.0%
[22] = Cycle 1, target relative humidity 90.0%
[23] = Cycle 1, target relative humidity 95.0%
[24] = Cycle 2, target relative humidity 0.0%
[25] = Cycle 2, target relative humidity 10.0%
[26] = Cycle 2, target relative humidity 20.0%
[27] = Cycle 2, target relative humidity 30.0%
[28] = Cycle 2, target relative humidity 40.0%
[29] = Cycle 2, target relative humidity 50.0%
[30] = Cycle 2, target relative humidity 60.0%
[31] = Cycle 2, target relative humidity 70.0%
[32] = Cycle 2, target relative humidity 80.0%
[33] = Cycle 2, target relative humidity 90.0%
[34] = Cycle 2, target relative humidity 95.0%

Compound: CCS(=O)(=O)O.N#Cc1cc2n(CC(=O)Nc3ccc(F)cn3)c(=O)c3ccc(C(F)(F)F)nc3n2n1 [Ethanesulfonate (crystal form A), 2-(2-cyano-5-oxo-8-(trifluoromethyl)pyrazolo[1,5-a]pyrido[3,2-e]pyrimidin-4(5H)-yl)-N-(5-fluoropyridin-2-yl)acetamide ethanesulfonate]
- exposure AUC and maximum plasma concentration Cmax compared with the free base ([1]; 10 mg/kg): superior
- AUC(0-t) ([1]; male, rat, po, p.o. 10 mg/kg, plasma, vehicle 0.5% HPMC, read-out: Area under curve AUC0-t): 30300 ng·h/mL
- MRT inf ([1]; male, rat, po, p.o. 10 mg/kg, plasma, vehicle 0.5% HPMC, read-out: Average residence time MRT0-∞): 4.9 h
- half-life ([1]; male, rat, po, p.o. 10 mg/kg, plasma, vehicle 0.5% HPMC, read-out: Half life t1/2 (converted)): 156 min
- Tmax ([1]; male, rat, po, p.o. 10 mg/kg, plasma, vehicle 0.5% HPMC, read-out: Peak time tmax): 4 h
- Cmax ([1]; male, rat, po, p.o. 10 mg/kg, plasma, vehicle 0.5% HPMC, read-out: Plasma concentration Cmax): 3840 ng/mL
- solid stability under high temperature ([2]; 60° C., 7 and 14 days): stable
- solid stability under high humidity ([2]; 92.5% RH, 7 and 14 days): stable
- % increase of total impurities [2, 7]: <0.1%
- % maximum increase of single impurity [2, 7]: <0.1%
- % increase of total impurities [2, 8]: <0.1%
- % maximum increase of single impurity [2, 8]: <0.1%
- % increase of total impurities [2, 9]: >0.2%
- % maximum increase of single impurity [2, 9]: <0.1%
- % increase of total impurities [2, 10]: <0.1%
- % maximum increase of single impurity [2, 10]: <0.1%
- % increase of total impurities [2, 11]: >0.3%
- % maximum increase of single impurity [2, 11]: >0.1%
- % increase of total impurities [2, 12]: >0.2%
- % maximum increase of single impurity [2, 12]: >0.1%
- % percentage of mass change, Desorption [3, 13]: −0.012%
- % percentage of mass change, Sorption [3, 13]: 0.000%
- % percentage of mass change, Desorption [3, 14]: 0.042%
- % percentage of mass change, Sorption [3, 14]: 0.051%
- % percentage of mass change, Desorption [3, 15]: 0.090%
- % percentage of mass change, Sorption [3, 15]: 0.094%
- % percentage of mass change, Desorption [3, 16]: 0.137%
- % percentage of mass change, Sorption [3, 16]: 0.139%
- % percentage of mass change, Desorption [3, 17]: 0.192%
- % percentage of mass change, Sorption [3, 17]: 0.183%
- % percentage of mass change, Desorption [3, 18]: 0.260%
- % percentage of mass change, Sorption [3, 18]: 0.231%
- % percentage of mass change, Desorption [3, 19]: 0.334%
- % percentage of mass change, Sorption [3, 19]: 0.297%
- % percentage of mass change, Desorption [3, 20]: 0.442%
- % percentage of mass change, Sorption [3, 20]: 0.401%
- % percentage of mass change, Desorption [3, 21]: 0.625%
- % percentage of mass change, Sorption [3, 21]: 0.572%
- % percentage of mass change, Desorption [3, 22]: 1.135%
- % percentage of mass change, Sorption [3, 22]: 1.025%
- % percentage of mass change, Desorption [3, 23]: 1.927%
- % percentage of mass change, Sorption [3, 23]: 1.927%
- % percentage of mass change, Desorption [3, 24]: −0.016%
- % percentage of mass change, Sorption [3, 24]: −0.012%
- % percentage of mass change, Desorption [3, 25]: 0.035%
- % percentage of mass change, Sorption [3, 25]: 0.037%
- % percentage of mass change, Desorption [3, 26]: 0.083%
- % percentage of mass change, Sorption [3, 26]: 0.083%
- % percentage of mass change, Desorption [3, 27]: 0.130%
- % percentage of mass change, Sorption [3, 27]: 0.127%
- % percentage of mass change, Desorption [3, 28]: 0.184%
- % percentage of mass change, Sorption [3, 28]: 0.174%
- % percentage of mass change, Desorption [3, 29]: 0.250%
- % percentage of mass change, Sorption [3, 29]: 0.228%
- % percentage of mass change, Desorption [3, 30]: 0.321%
- % percentage of mass change, Sorption [3, 30]: 0.295%
- % percentage of mass change, Desorption [3, 31]: 0.421%
- % percentage of mass change, Sorption [3, 31]: 0.388%
- % percentage of mass change, Desorption [3, 32]: 0.584%
- % percentage of mass change, Sorption [3, 32]: 0.541%
- % percentage of mass change, Desorption [3, 33]: 1.020%
- % percentage of mass change, Sorption [3, 33]: 0.942%
- % percentage of mass change, Desorption [3, 34]: 1.683%
- % percentage of mass change, Sorption [3, 34]: 1.683%

Compound: CCc1cc2n(CC(=O)Nc3ccc(F)cn3)c(=O)c3ccc(C(F)(F)F)nc3n2n1 [Example 12, 2-(2-Ethyl-5-oxo-8-(trifluoromethyl)pyrazolo[1,5-a]pyrido[3,2-e]pyrimidin-4(5H)-yl)-N-(5-fluoropyridin-2-yl)acetamide]
- Mouse Remaining (%, 60 min) [4]: 81.3%
- Rat Remaining (%, 60 min) [5]: 104.4%
- Human t1/2 ([6]; human liver microsome 0.5 mg/mL, compound 1 μM, NADPH/UDPGA): ∞
- Human Remaining (%, 60 min) ([6]; human liver microsome, 60 min): 113.9%
